Measurements published in US20240228458A1, “PYRIMIDINE DERIVATIVE HAVING PROTEIN KINASE INHIBITORY ACTIVITY, AND THERAPEUTIC PHARMACEUTICAL COMPOSITION COMPRISING SAME” (THERAPEX CO., LTD., priority 2021, published 2024).

Legend:
Format in all cases: cell-based
[1] = tested on: Ba/F3 cells expressing del19/T790M (EGFR-DT); assay: Growth inhibition (GI50) of Ba/F3 cells expressing del19/T790M (EGFR-DT), Celltiter glo; conditions: Mus musculus, BaF3, 72 h
Summary of the method: (§1)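 Viable-cell luminescence (CellTiter-Glo) after 72 h compound exposure at 37 °C, 5% CO2 gave GI50 (μM, 50% growth inhibition). Compounds were 4-fold serial dilutions, 10 points, from a 2 mM stock, 0.5% DMSO, added 4 h after plating EGFR-variant Ba/F3 cells at 100,000 cells/ml.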

[2] = tested on: Ba/F3 cells expressing EGFR-wt; assay: Growth inhibition (GI50) of Ba/F3 cells expressing EGFR-wt, Celltiter glo; conditions: Mus musculus, BaF3, 72 h
Summary of the method: as §1

[3] = tested on: Ba/F3 cells expressing L858R/T790M (EGFR-LT); assay: Growth inhibition (GI50) of Ba/F3 cells expressing L858R/T790M (EGFR-LT), Celltiter glo; conditions: Mus musculus, BaF3, 72 h
Summary of the method: as §1

[4] = tested on: Ba/F3 cells expressing L858R/T790M/C797S (EGFR-LTC); assay: Growth inhibition (GI50) of Ba/F3 cells expressing L858R/T790M/C797S (EGFR-LTC), Celltiter glo; conditions: Mus musculus, BaF3, 72 h
Summary of the method: as §1

[5] = tested on: parental Ba/F3 cell line; assay: Growth inhibition (GI50) of the parental Ba/F3 cell line (not introduced with EGFR variants), Celltiter glo; conditions: Mus musculus, BaF3, 72 h, parental Ba/F3 cells
Summary of the method: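 Parental Ba/F3 cells (100,000 cells/ml) were treated with 10-point, 4-fold compound dilutions (0.5% DMSO; top stock 2 mM) for 72 h at 37 °C, 5% CO2. Viability was read by CellTiter-Glo; GI50 is the concentration (μM) giving 50% growth inhibition.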

[6] = tested on: Ba/F3 cells expressing del19/T790M/C797S (EGFR-DTC); assay: Growth inhibition (GI50) of Ba/F3 cells expressing del19/T790M/C797S (EGFR-DTC), Celltiter glo; conditions: Mus musculus, BaF3, 72 h
Summary of the method: as §1

SMILES	GI50 [1]	GI50 [2]	GI50 [3]	GI50 [4]	GI50 [5]	GI50 [6]
COc1cc(N2CCC(N3CCN(C(F)(F)F)CC3)CC2)c(C)cc1Nc1ncc(Cl)c(Nc2cc3c(cc2NS(C)(=O)=O)CCO3)n1 [Example 225, N-(6-((5-chloro-2-((2-methoxy-5-methyl-4-(4-(4-(trifluoromethyl)piperazin-1-yl)piperidin-1-yl)phenyl)amino)pyrimidin-4-yl)amino)-2,3-dihydrobenzofuran-5-yl)methanesulfonamide]	25 to 100 nM	500 to 2000 nM	25 to 100 nM	25 to 100 nM	2000 to 10000 nM	1 to 25 nM
CN1CCN(C2CCN(c3cc(Cl)c(Nc4ncc(Cl)c(Nc5cc(Cl)ccc5N(C)S(C)(=O)=O)n4)cc3Cl)CC2)CC1 [Example 226, N-(4-chloro-2-((5-chloro-2-((2,5-dichloro-4-(4-(4-methylpiperazin-1-yl)piperidin-1-yl)phenyl)amino)pyrimidin-4-yl)amino)phenyl)-N-methylmethanesulfonamide]	25 to 100 nM	100 to 500 nM	25 to 100 nM	25 to 100 nM	500 to 2000 nM	25 to 100 nM
Cc1cc(Nc2ncc(Br)c(Nc3cc(Cl)ccc3N(C)S(C)(=O)=O)n2)c(Cl)cc1N1CCC(N2CCC(N(C)C)C2)CC1 (stereo not drawn) [Example 227, N-(2-((5-bromo-2-((2-chloro-4-(4-(3-(dimethylamino)pyrrolidin-1-yl)piperidin-1-yl)-5-methylphenyl)amino)pyrimidin-4-yl)amino)-4-chlorophenyl)-N-methylmethanesulfonamide]	1 to 25 nM	1 to 25 nM	1 to 25 nM	25 to 100 nM	100 to 500 nM	1 to 25 nM
CN1CCN(C2CCN(c3cc(Cl)c(Nc4ncc(Br)c(Nc5cc(Cl)ccc5N(C)S(C)(=O)=O)n4)cc3Cl)CC2)CC1 [Example 228, N-(2-((5-bromo-2-((2,5-dichloro-4-(4-(4-methylpiperazin-1-yl)piperidin-1-yl)phenyl)amino)pyrimidin-4-yl)amino)-4-chlorophenyl)-N-methylmethanesulfonamide]	25 to 100 nM	100 to 500 nM	1 to 25 nM	25 to 100 nM	100 to 500 nM	1 to 25 nM
COc1ccc(NS(C)(=O)=O)c(Nc2nc(Nc3cc(Cl)c(N4CCC(N5CCCN(C)CC5)CC4)cc3OC)ncc2Cl)c1 [Example 229, N-(2-((5-chloro-2-((5-chloro-2-methoxy-4-(4-(4-methyl-1,4-diazepan-1-yl)piperidin-1-yl)phenyl)amino)pyrimidin-4-yl)amino)-4-methoxyphenyl)methanesulfonamide]	1 to 25 nM	500 to 2000 nM	25 to 100 nM	100 to 500 nM	2000 to 10000 nM	25 to 100 nM
COc1ccc(NS(C)(=O)=O)c(Nc2nc(Nc3cc(C)c(N4CCC(N5CCC(N(C)C)C5)CC4)cc3Cl)ncc2Cl)c1 (stereo not drawn) [Example 230, N-(2-((5-chloro-2-((2-chloro-4-(4-(3-(dimethylamino)pyrrolidin-1-yl)piperidin-1-yl)-5-methylphenyl)amino)pyrimidin-4-yl)amino)-4-methoxyphenyl)methanesulfonamide]	25 to 100 nM	500 to 2000 nM	100 to 500 nM	100 to 500 nM	2000 to 10000 nM	100 to 500 nM
COc1ccc(NS(C)(=O)=O)c(Nc2nc(Nc3ccc(N4CCC(N5CCN(C)CC5)CC4)cc3OC)ncc2Cl)c1 [Example 231, N-(2-((5-chloro-2-((2-methoxy-4-(4-(4-methylpiperazin-1-yl)piperidin-1-yl)phenyl)amino)pyrimidin-4-yl)amino)-4-methoxyphenyl)methanesulfonamide]	100 to 500 nM	2000 to 10000 nM	100 to 500 nM	100 to 500 nM	2000 to 10000 nM	100 to 500 nM
COc1ccc(NS(C)(=O)=O)c(Nc2nc(Nc3cc(C)c(N4CCC(N5CCCC(N(C)C)C5)CC4)cc3OC)ncc2Cl)c1 (stereo not drawn) [Example 232, N-(2-((5-chloro-2-((4-(3-(dimethylamino)-[1,4′-bipiperidin]-1′-yl)-2-methoxy-5-methylphenyl)amino)pyrimidin-4-yl)amino)-4-methoxyphenyl)methanesulfonamide]	25 to 100 nM	500 to 2000 nM	100 to 500 nM	100 to 500 nM	2000 to 10000 nM	25 to 100 nM
COc1ccc(NS(C)(=O)=O)c(Nc2nc(Nc3cc(C)c(N4CCC(N5CCN(C6CC6)CC5)CC4)cc3OC)ncc2Cl)c1 [Example 233, N-(2-((5-chloro-2-((4-(4-(4-cyclopropylpiperazin-1-yl)piperidin-1-yl)-2-methoxy-5-methylphenyl)amino)pyrimidin-4-yl)amino)-4-methoxyphenyl)methanesulfonamide]	25 to 100 nM	500 to 2000 nM	25 to 100 nM	25 to 100 nM	2000 to 10000 nM	25 to 100 nM
COc1ccc(NS(C)(=O)=O)c(Nc2nc(Nc3cc(C)c(N4CCC(N5CCC(C(F)(F)F)CC5)CC4)cc3OC)ncc2Cl)c1 [Example 234, N-(2-((5-chloro-2-((2-methoxy-5-methyl-4-(4-(trifluoromethyl)-[1,4′-bipiperidin]-1′-yl)phenyl)amino)pyrimidin-4-yl)amino)-4-methoxyphenyl)methanesulfonamide]	100 to 500 nM	2000 to 10000 nM	100 to 500 nM	100 to 500 nM	2000 to 10000 nM	100 to 500 nM
COc1ccc(NS(C)(=O)=O)c(Nc2nc(Nc3cc(C)c(N4CCC(N5CCC(N(C)C)C5)CC4)cc3OC)ncc2Cl)c1 (stereo not drawn) [Example 235, N-(2-((5-chloro-2-((4-(4-(3-(dimethylamino)pyrrolidin-1-yl)piperidin-1-yl)-2-methoxy-5-methylphenyl)amino)pyrimidin-4-yl)amino)-4-methoxyphenyl)methanesulfonamide]	25 to 100 nM	500 to 2000 nM	100 to 500 nM	100 to 500 nM	2000 to 10000 nM	25 to 100 nM
COc1ccc(NS(C)(=O)=O)c(Nc2nc(Nc3cc(C)c(N4CCC(N5CCCC(N(C)C)C5)CC4)cc3Cl)ncc2Cl)c1 (stereo not drawn) [Example 236, N-(2-((5-chloro-2-((2-chloro-4-(3-(dimethylamino)-[1,4′-bipiperidin]-1′-yl)-5-methylphenyl)amino)pyrimidin-4-yl)amino)-4-methoxyphenyl)methanesulfonamide]	100 to 500 nM	2000 to 10000 nM	100 to 500 nM	100 to 500 nM	2000 to 10000 nM	100 to 500 nM
COc1ccc(NS(C)(=O)=O)c(Nc2nc(Nc3cc(Cl)c(N4CCC(N5CCCC(N(C)C)C5)CC4)cc3OC)ncc2Cl)c1 (stereo not drawn) [Example 237, N-(2-((5-chloro-2-((5-chloro-4-(3-(dimethylamino)-[1,4′-bipiperidin]-1′-yl)-2-methoxyphenyl)amino)pyrimidin-4-yl)amino)-4-methoxyphenyl)methanesulfonamide]	100 to 500 nM	500 to 2000 nM	1 to 25 nM	1 to 25 nM	2000 to 10000 nM	100 to 500 nM
COc1nc(N2CCCN(C)CC2)ccc1Nc1ncc(Br)c(Nc2cc3c(cc2NS(C)(=O)=O)CCO3)n1 [Example 238, N-(6-((5-bromo-2-((2-methoxy-6-(4-methyl-1,4-diazepan-1-yl)pyridin-3-yl)amino)pyrimidin-4-yl)amino)-2,3-dihydrobenzofuran-5-yl)methanesulfonamide]	2000 to 10000 nM	2000 to 10000 nM	100 to 500 nM	100 to 500 nM	2000 to 10000 nM	2000 to 10000 nM
CN1CCN(C2CCN(c3ncc(Nc4ncc(Br)c(Nc5cc6c(cc5NS(C)(=O)=O)CCO6)n4)cc3F)CC2)CC1 [Example 239, N-(6-((5-bromo-2-((5-fluoro-6-(4-(4-methylpiperazin-1-yl)piperidin-1-yl)pyridin-3-yl)amino)pyrimidin-4-yl)amino)-2,3-dihydrobenzofuran-5-yl)methanesulfonamide]	25 to 100 nM	500 to 2000 nM	25 to 100 nM	100 to 500 nM	2000 to 10000 nM	500 to 2000 nM
COc1nc(N2CCC(N3CCN(C)CC3)CC2)c(C)cc1Nc1ncc(Br)c(Nc2cc3c(cc2NS(C)(=O)=O)CCO3)n1 [Example 240, N-(6-((5-bromo-2-((2-methoxy-5-methyl-6-(4-(4-methylpiperazin-1-yl)piperidin-1-yl)pyridin-3-yl)amino)pyrimidin-4-yl)amino)-2,3-dihydrobenzofuran-5-yl)methanesulfonamide]	100 to 500 nM	500 to 2000 nM	1 to 25 nM	1 to 25 nM	2000 to 10000 nM	100 to 500 nM
COc1nc(N2CCC(N3CCN(C)CC3)CC2)c(C)cc1Nc1ncc(Cl)c(Nc2cc3c(cc2NS(C)(=O)=O)CCO3)n1 [Example 241, N-(6-((5-chloro-2-((2-methoxy-5-methyl-6-(4-(4-methylpiperazin-1-yl)piperidin-1-yl)pyridin-3-yl)amino)pyrimidin-4-yl)amino)-2,3-dihydrobenzofuran-5-yl)methanesulfonamide]	100 to 500 nM	500 to 2000 nM	1 to 25 nM	25 to 100 nM	2000 to 10000 nM	100 to 500 nM
